Measurements published in PubChem BioAssay AID256 (DTP/NCI, 2004).
Several values for one entry are separate records, joined by “and”; a condition that tells them apart may be missing. Equal values may be shown once. Inconclusive results and toxic doses are left out.

Tested on: CD2F1 mice, L1210 leukemia ip, survival T/C
Experiment: NCI In Vivo Anticancer Drug Screen. Data for tumor model L1210 Leukemia (intraperitoneal) in CD2F1 (CDF1) mice
Settings: higher = longer survival
How it was run: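 Compound-dosed mice with transplantable tumor versus matched vehicle controls; endpoint ratio T/C reported.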

[1] = endpoint: mean survival time, dose: 100.0 mg/kg/injection, schedule: Q01DX009 (ip), vehicle: saline with Tween-80
[2] = endpoint: mean survival time, dose: 100.0 mg/kg/injection, schedule: Q04DX003 (ip), vehicle: saline with Tween-80
[3] = endpoint: mean survival time, dose: 200.0 mg/kg/injection, schedule: Q01DX009 (ip), vehicle: saline with Tween-80
[4] = endpoint: mean survival time, dose: 200.0 mg/kg/injection, schedule: Q04DX003 (ip), vehicle: saline with Tween-80
[5] = endpoint: mean survival time, dose: 400.0 mg/kg/injection, schedule: Q01DX009 (ip), vehicle: saline with Tween-80
[6] = endpoint: mean survival time, dose: 400.0 mg/kg/injection, schedule: Q04DX003 (ip), vehicle: saline with Tween-80
[7] = endpoint: mean survival time, dose: 100.0 mg/kg/injection, schedule: Q04DX002 (ip), vehicle: saline with Tween-80
[8] = endpoint: mean survival time, dose: 200.0 mg/kg/injection, schedule: Q04DX002 (ip), vehicle: saline with Tween-80
[9] = endpoint: mean survival time, dose: 100.0 mg/kg/injection, schedule: Q01DX001 (ip), vehicle: saline with Tween-80
[10] = endpoint: mean survival time, dose: 200.0 mg/kg/injection, schedule: Q01DX001 (ip), vehicle: saline with Tween-80
[11] = endpoint: mean survival time, dose: 400.0 mg/kg/injection, schedule: Q01DX001 (ip), vehicle: saline with Tween-80

## C=C1C(=O)OC2CC(C)C3C4OC4C(O)C3(C)C(O)C12 (configuration not stated)
endpoint: median survival time, dose: 3.12 mg/kg/injection, schedule: Q01DX009 (ip), vehicle: saline
  T/C: 97 % of control
endpoint: median survival time, dose: 6.25 mg/kg/injection, schedule: Q01DX009 (ip), vehicle: saline
  T/C: 113 % of control
endpoint: median survival time, dose: 12.5 mg/kg/injection, schedule: Q01DX009 (ip), vehicle: saline
  T/C: 101 % of control
endpoint: median survival time, dose: 25.0 mg/kg/injection, schedule: Q01DX009 (ip), vehicle: saline
  T/C: 107 % of control
endpoint: median survival time, dose: 50.0 mg/kg/injection, schedule: Q01DX009 (ip), vehicle: saline
  T/C: 109 % of control
endpoint: median survival time, dose: 100.0 mg/kg/injection, schedule: Q01DX009 (ip), vehicle: saline
  T/C: 124 % of control

## N#CNC(N)=O
endpoint: mean survival time, dose: 100.0 mg/kg/injection, schedule: Q01DX009 (ip), vehicle: saline sonified
  T/C: 102 % of control
endpoint: mean survival time, dose: 200.0 mg/kg/injection, schedule: Q01DX009 (ip), vehicle: saline sonified
  T/C: 96 % of control
endpoint: mean survival time, dose: 400.0 mg/kg/injection, schedule: Q01DX009 (ip), vehicle: saline sonified
  T/C: 100 % of control

## O=C1C=CC(=O)N1c1ccccc1[N+](=O)[O-]
endpoint: mean survival time, dose: 3.0 mg/kg/injection, schedule: Q01DX009 (ip), vehicle: saline with Tween-80
  T/C: 96 % of control
endpoint: mean survival time, dose: 6.0 mg/kg/injection, schedule: Q01DX009 (ip), vehicle: saline with Tween-80
  T/C: 100 % of control
endpoint: mean survival time, dose: 6.25 mg/kg/injection, schedule: Q04DX003 (ip), vehicle: saline with Tween-80
  T/C: 100 % of control
endpoint: mean survival time, dose: 12.0 mg/kg/injection, schedule: Q01DX009 (ip), vehicle: saline with Tween-80
  T/C: 97 % of control
endpoint: mean survival time, dose: 12.5 mg/kg/injection, schedule: Q04DX003 (ip), vehicle: saline with Tween-80
  T/C: 97 % of control

## c1ccc2c([Si](O[Si](c3cccc4ccccc34)C3CCCCC3)C3CCCCC3)cccc2c1
[1]
  T/C: 100 % of control
[2]
  T/C: 93 % of control
[3]
  T/C: 91 % of control
[4]
  T/C: 91 % of control
[5]
  T/C: 88 % of control

## Cc1sc2ccccc2c2nc3ccccc3c1-2
[1]
  T/C: 106 % of control
[3]
  T/C: 104 % of control
[5]
  T/C: 107 % of control

## COP1(=S)OCC2OC(n3cc(C)c(=O)[nH]c3=O)CC2O1 (configuration not stated)
endpoint: mean survival time, dose: 12.5 mg/kg/injection, schedule: Q01DX005 (ip), vehicle: distilled water + Tween-80
  T/C: 101 % of control
endpoint: mean survival time, dose: 25.0 mg/kg/injection, schedule: Q01DX005 (ip), vehicle: distilled water + Tween-80
  T/C: 102 % of control
endpoint: mean survival time, dose: 50.0 mg/kg/injection, schedule: Q01DX005 (ip), vehicle: distilled water + Tween-80
  T/C: 102 % of control
endpoint: mean survival time, dose: 100.0 mg/kg/injection, schedule: Q01DX005 (ip), vehicle: distilled water + Tween-80
  T/C: 102 % of control
endpoint: mean survival time, dose: 200.0 mg/kg/injection, schedule: Q01DX005 (ip), vehicle: distilled water + Tween-80
  T/C: 98 % of control

## C(=C\c1ccc2ccccc2n1)/c1ccc2c(c1)OCO2
[1]
  T/C: 96 % of control
[2]
  T/C: 102 % of control
[3]
  T/C: 96 % of control
[4]
  T/C: 102 % of control
[5]
  T/C: 95 % of control
[6]
  T/C: 101 % of control

## NC(=S)S
[7]
  T/C: 102 % of control
[8]
  T/C: 113 % of control
endpoint: mean survival time, dose: 400.0 mg/kg/injection, schedule: Q04DX002 (ip), vehicle: saline with Tween-80
  T/C: 102 % of control

## CCCCCCCCCCCCCCCCCCNC(=O)Nc1ccc(C)cc1C
endpoint: mean survival time, dose: 100.0 mg/kg/injection, schedule: Q01DX009 (ip), vehicle: saline + alcohol
  T/C: 98 % of control
endpoint: mean survival time, dose: 100.0 mg/kg/injection, schedule: Q04DX003 (ip), vehicle: saline + alcohol
  T/C: 89 % of control
endpoint: mean survival time, dose: 200.0 mg/kg/injection, schedule: Q01DX009 (ip), vehicle: saline + alcohol
  T/C: 104 % of control
endpoint: mean survival time, dose: 200.0 mg/kg/injection, schedule: Q04DX003 (ip), vehicle: saline + alcohol
  T/C: 100 % of control
endpoint: mean survival time, dose: 400.0 mg/kg/injection, schedule: Q01DX009 (ip), vehicle: saline + alcohol
  T/C: 107 % of control
endpoint: mean survival time, dose: 400.0 mg/kg/injection, schedule: Q04DX003 (ip), vehicle: saline + alcohol
  T/C: 89 % of control

## [CH3][Pb]([CH3])([CH3])[NH]C#N
endpoint: mean survival time, dose: 2.5 mg/kg/injection, schedule: Q01DX009 (ip), vehicle: saline
  T/C: 98 % of control
endpoint: mean survival time, dose: 5.0 mg/kg/injection, schedule: Q01DX009 (ip), vehicle: saline
  T/C: 87 % of control

## CC(Br)C1(c2ccccc2)OCCO1 (configuration not stated)
[9]
  T/C: 100 % of control
[1]
  T/C: 114 % of control
[2]
  T/C: 104 % of control
[10]
  T/C: 94 % of control
[4]
  T/C: 111 % of control
[11]
  T/C: 102 % of control
[6]
  T/C: 101 % of control

## CCOC(=O)c1cnc(SC)nc1NC(C)c1ccccc1 (configuration not stated)
[9]
  T/C: 94 % of control
[1]
  T/C: 97 % of control
[10]
  T/C: 88 % of control
[3]
  T/C: 89 % of control
[11]
  T/C: 89 % of control
[5]
  T/C: 94 % of control

## CC(C)(CC/C(=N\Nc1ccc([N+](=O)[O-])cc1[N+](=O)[O-])c1ccccc1)C1OCCO1
endpoint: mean survival time, dose: 50.0 mg/kg/injection, schedule: Q04DX002 (ip), vehicle: saline with Tween-80
  T/C: 90 % of control
[7]
  T/C: 98 % of control
[8]
  T/C: 94 % of control

## Cc1cc(Cl)ccc1NC(=O)Nc1nccs1
endpoint: mean survival time, dose: 12.5 mg/kg/injection, schedule: Q01DX009 (ip), vehicle: saline with Tween-80
  T/C: 98 % of control
endpoint: mean survival time, dose: 25.0 mg/kg/injection, schedule: Q01DX009 (ip), vehicle: saline with Tween-80
  T/C: 98 % of control
endpoint: mean survival time, dose: 50.0 mg/kg/injection, schedule: Q01DX009 (ip), vehicle: saline with Tween-80
  T/C: 95 % of control
[1]
  T/C: 95 % of control
[3]
  T/C: 100 % of control

## ClC=C(c1ccc(Cl)cc1)c1ccc(Cl)cc1
[2]
  T/C: 97 % of control
[4]
  T/C: 97 % of control
[6]
  T/C: 101 % of control

## c1ccc([P+](Cc2ccc3ccccc3n2)(c2ccccc2)c2ccccc2)cc1
endpoint: mean survival time, dose: 6.25 mg/kg/injection, schedule: Q01DX009 (ip), vehicle: saline
  T/C: 108 % of control
endpoint: mean survival time, dose: 12.5 mg/kg/injection, schedule: Q01DX009 (ip), vehicle: saline
  T/C: 112 % of control

## COc1ccccc1N1C(=O)C=CC1=O
endpoint: mean survival time, dose: 5.0 mg/kg/injection, schedule: Q04DX003 (ip), vehicle: saline with Tween-80
  T/C: 98 % of control
endpoint: mean survival time, dose: 10.0 mg/kg/injection, schedule: Q04DX003 (ip), vehicle: saline with Tween-80
  T/C: 100 % of control
endpoint: mean survival time, dose: 20.0 mg/kg/injection, schedule: Q04DX003 (ip), vehicle: saline with Tween-80
  T/C: 95 % of control

## CN(C)C=NC1(c2ccccc2)CCCCC1
endpoint: mean survival time, dose: 25.0 mg/kg/injection, schedule: Q04DX003 (ip), vehicle: saline with Tween-80
  T/C: 97 % of control
endpoint: mean survival time, dose: 50.0 mg/kg/injection, schedule: Q04DX003 (ip), vehicle: saline with Tween-80
  T/C: 92 % of control
[2]
  T/C: 91 % of control and 97 % of control

## O=C(O)c1[nH]c(=O)[nH]c(=O)c1F.[Ga]
endpoint: mean survival time, dose: 54.0 mg/kg/injection, schedule: Q01DX001 (ip), vehicle: saline with Tween-80
  T/C: 123 % of control
endpoint: mean survival time, dose: 177.0 mg/kg/injection, schedule: Q01DX001 (ip), vehicle: saline with Tween-80
  T/C: 159 % of control

## O=S(=O)(O)C1=CC(=N\Cl)/C=CC/1=N/Cl
endpoint: median survival time, dose: 50.0 mg/kg/injection, schedule: Q01DX009 (ip), vehicle: saline with Tween-80
  T/C: 110 % of control
endpoint: median survival time, dose: 100.0 mg/kg/injection, schedule: Q01DX009 (ip), vehicle: saline with Tween-80
  T/C: 119 % of control
endpoint: median survival time, dose: 200.0 mg/kg/injection, schedule: Q01DX009 (ip), vehicle: saline with Tween-80
  T/C: 108 % of control
endpoint: median survival time, dose: 400.0 mg/kg/injection, schedule: Q01DX009 (ip), vehicle: saline with Tween-80
  T/C: 120 % of control

## COC1=C(C)C(=O)C2=C(C1=O)C1C3CC4=C(C(=O)C(OC)=C(C)C4=O)C(CNC(=O)C(C)=O)N3C(C#N)C(C2)N1C (configuration not stated)
endpoint: median survival time, dose: 0.13 mg/kg/injection, schedule: Q01DX009 (ip), vehicle: Klucel (hydroxypropylcellulose) (HPC)
  T/C: 118 % of control
endpoint: median survival time, dose: 0.25 mg/kg/injection, schedule: Q01DX009 (ip), vehicle: Klucel (hydroxypropylcellulose) (HPC)
  T/C: 110 % of control
endpoint: median survival time, dose: 0.5 mg/kg/injection, schedule: Q01DX009 (ip), vehicle: Klucel (hydroxypropylcellulose) (HPC)
  T/C: 113 % of control and 108 % of control
endpoint: median survival time, dose: 1.0 mg/kg/injection, schedule: Q01DX009 (ip), vehicle: Klucel (hydroxypropylcellulose) (HPC)
  T/C: 116 % of control and 112 % of control
endpoint: median survival time, dose: 2.0 mg/kg/injection, schedule: Q01DX009 (ip), vehicle: Klucel (hydroxypropylcellulose) (HPC)
  T/C: 108 % of control
endpoint: median survival time, dose: 62.5 micrograms/kg/injection, schedule: Q01DX009 (ip), vehicle: Klucel (hydroxypropylcellulose) (HPC)
  T/C: 100 % of control
endpoint: median survival time, dose: 125.0 micrograms/kg/injection, schedule: Q01DX009 (ip), vehicle: Klucel (hydroxypropylcellulose) (HPC)
  T/C: 104 % of control
endpoint: median survival time, dose: 250.0 micrograms/kg/injection, schedule: Q01DX009 (ip), vehicle: Klucel (hydroxypropylcellulose) (HPC)
  T/C: 108 % of control
endpoint: median survival time, dose: 500.0 micrograms/kg/injection, schedule: Q01DX009 (ip), vehicle: Klucel (hydroxypropylcellulose) (HPC)
  T/C: 117 % of control
endpoint: median survival time, dose: 1000.0 micrograms/kg/injection, schedule: Q01DX009 (ip), vehicle: Klucel (hydroxypropylcellulose) (HPC)
  T/C: 122 % of control
